Experimental data reported in patent publication US8846566B2, “Composition for controlling plant diseases and method for controlling plant diseases” (Sumitomo Chemical Company, Limited, priority 2008, dated 2014).

Legend:
Type in all cases: in vivo
[1] = tested on: Botrytis cinerea, pathogen of gray mold of cucumber; experiment: Test Example 1: foliage application on cucumber, gray mold control (with metconazole); details: 6 days after inoculation
Source text: A plastic pot was filled with sandy soil, and cucumber (Sagamihanjiro) was then disseminated. The cucumber was allowed to grow in a green house for 12 days. A wettable powder of the compound (1b) and a commercially available metconazole formulation (Caramba (registered trademark) produced by BASF) were respectively diluted with water and then tank-mixed so as to prepare tank-mixed liquids containing compound (1b) and metconazole in predetermined concentration. The tank-mixed liquids were subjected to foliage application such that they could be sufficiently adhered to the leaves of the aforementioned cucumber plants. After completion of the foliage application, the plants were air-dried. […] The diameter of infected area on the plants on which the agents had been sprayed was determined as the incidence of disease at the time of checking and the control value was calculated by Equation 1 based on the incidence of disease thus determined.
As a comparison, the respective wettable powders described above were diluted with water in predetermined concentration so as to prepare a compound (1b) liquid and a metconazole liquid respectively and they were subjected to similar disease control test. Besides, in order to calculate the control value, the incidence of disease was also determined in the case in which the plants had not been treated with the agent. […]

[2] = tested on: Botrytis cinerea, pathogen of gray mold of cucumber; experiment: Test Example 3: foliage application on cucumber, gray mold control (with ipconazole); details: 6 days after inoculation
Experimental: Control value=100(A−B)/A “Equation 1”;
Generally, the control value expected for the case where the given two kinds of active ingredient compounds are mixed and used for the treatment, the so-called control value expectation is calculated from the following Colby's calculating equation. E=X+Y−(X×Y)/100 “Equation 2”; […]
A plastic pot was filled with sandy soil, and cucumber (Sagamihanjiro) was then disseminated. […] The diameter of infected area on the plants on which the agents had been sprayed was determined as the incidence of disease at the time of checking and the control value was calculated by the aforementioned Equation 1 based on the incidence of disease thus determined.
As a comparison, the respective wettable powders described above were diluted with water in predetermined concentration so as to prepare a compound (1b) liquid and an ipconazole liquid respectively and they were subjected to similar disease control test. Besides, in order to calculate the control value, the incidence of disease was also determined in the case in which the plants has not been treated with the agent.

[3] = tested on: Rhizoctonia solani, pathogen of brown patch of turf; experiment: Test Example 5: foliage application on turf, brown patch control (with metconazole); details: 10 days after inoculation
Experimental: Control value=100(A−B)/A “Equation 1”; Generally, the control value expected for the case where the given two kinds of active ingredient compounds are mixed and used for the treatment, the so-called control value expectation is calculated from the following Colby's calculating equation. E=X+Y−(X×Y)/100 “Equation 2”; E: Control value (%) expected for the case in which active ingredient compound A in M ppm, in M g per 100 kg of seeds or in M g per 1 hectare and active ingredient compound B in N ppm, in N g per 100 kg of seeds or in N g per 1 hectare are mixed and used for treatment (hereinbelow referred to as “control value expectation”) “Synergetic effect(%)”=(Actual control value)×100/(Control value expectation) A plastic pot was filled with sandy soil, and turf (Bent grass Penncross) was then disseminated. The turf was allowed to grow in a green house for 20 days. A wettable powder of the compound (1b) and a commercially available metconazole formulation (Caramba (registered trademark) produced by BASF) were respectively diluted with water and then tank-mixed so as to prepare tank-mixed liquids containing the compound (1b) and the metconazole in predetermined concentration. The tank-mixed liquids were subjected to foliage application such that they could be sufficiently adhered to the leaves of the aforementioned turf plants. After completion of the foliage application, the plants were air-dried. Thereafter, bran medium containing mycelium of Rhizoctonia solani, pathogen of brown patch of turf, was sprinkled over the planted area. […] The diameter of infected area on the planted area on which the agents had been sprayed was determined as the incidence of disease at the time of checking and the control value was calculated by the aforementioned Equation 1 based on the incidence of disease determined. […] Besides, in order to calculate the control value, the incidence of disease was also determined in the case in which the plants had not been treated with the agent.

[4] = tested on: Rhizoctonia solani, pathogen of cucumber damping-off; experiment: Test Example 4: smear treatment of cucumber seeds, damping-off control (with ipconazole); details: ipconazole alone 1 g/100 kg-seed, seventh day
Experimental: Control value=100(A−B)/A “Equation 1”; Generally, the control value expected for the case where the given two kinds of active ingredient compounds are mixed and used for the treatment, the so-called control value expectation is calculated from the following Colby's calculating equation. E=X+Y−(X×Y)/100 “Equation 2”; E: Control value (%) expected for the case in which active ingredient compound A in M ppm, in M g per 100 kg of seeds or in M g per 1 hectare and active ingredient compound B in N ppm, in N g per 100 kg of seeds or in N g per 1 hectare are mixed and used for treatment (hereinbelow referred to as “control value expectation”) “Synergetic effect(%)”=(Actual control value)×100/(Control value expectation) The results are shown in Table 3. […] They were allowed to grow in a greenhouse while irrigated and the number of non-budding seeds was checked on the seventh day after the dissemination and the incidence of disease was calculated by the aforementioned Equation 3. The control value was calculated by the aforementioned Equation 1 based on the incidence of disease. In order to calculate the control value, the incidence of disease was also determined in the case in which the plants had not been treated with the agent. […]

[5] = tested on: Rhizoctonia solani, pathogen of cucumber damping-off; experiment: Test Example 2: smear treatment of cucumber seeds, damping-off control (with metconazole); details: metconazole alone 1 g/100 kg-seed, seventh day
Experimental: Control value=100(A−B)/A “Equation 1”; Generally, the control value expected for the case where the given two kinds of active ingredient compounds are mixed and used for the treatment, the so-called control value expectation is calculated from the following Colby's calculating equation. E=X+Y−(X×Y)/100 “Equation 2”; E: Control value (%) expected for the case in which active ingredient compound A in M ppm, in M g per 100 kg of seeds or in M g per 1 hectare and active ingredient compound B in N ppm, in N g per 100 kg of seeds or in N g per 1 hectare are mixed and used for treatment (hereinbelow referred to as “control value expectation”) “Synergetic effect(%)”=(Actual control value)×100/(Control value expectation) Mixed liquids containing an acetone solution of compound (1b) and an acetone solution of metconazole were prepared. These mixed liquids were used for smear treatment of cucumber (Sagamihanjiro) seeds using a rotary seed treatment machine (seed dresser, produced by Hans-Ulrich Hege GmbH) so as to obtain treated seeds. […] They were allowed to grow in a greenhouse while irrigated and the number of non-budding seeds was checked on the seventh day after the dissemination and the incidence of disease was calculated by Equation 3. The control value was calculated by the aforementioned Equation 1 based on the incidence of disease. […]

**Q.** With `CNC(=O)C(OC)c1ccccc1COc1cc(C)ccc1C` (racemic) [Compound (1b)] as the compound, how does the Actual control value ([1]; compound (1b) alone 0.2 ppm) read?
**A.** 16%

**Q.** And the Actual control value ([2]; compound (1b) alone 0.2 ppm)?
**A.** 8%

**Q.** And the Actual control value ([3]; compound (1b) alone 600 g/ha)?
**A.** 88%

**Q.** Which Actual control value [4] does the source give for `CC(C)C1CCC(Cc2ccc(Cl)cc2)C1(O)Cn1cncn1` (stereo not drawn) [Ipconazole, ipconazole] here?
**A.** 30%

**Q.** What about the Actual control value ([2]; ipconazole alone 3.1 ppm) of the same compound?
**A.** 13%

**Q.** Which Actual control value ([1]; metconazole alone 0.8 ppm) does the source give for `CC1(C)CCC(Cc2ccc(Cl)cc2)C1(O)Cn1cncn1` (stereo not drawn) [Metconazole, metconazole] here?
**A.** 8%

**Q.** And the Actual control value ([3]; metconazole alone 9.4 g/ha)?
**A.** 63%

**Q.** What about the Actual control value ([3]; metconazole alone 37.5 g/ha) of the same compound?
**A.** 63%

**Q.** And the Actual control value [5]?
**A.** 39%
